According to article PMC10011554, “BET inhibitor trotabresib in heavily pretreated patients with solid tumors and diffuse large B-cell lymphomas” (Nature Communications, 2023):

Assay: Adverse events, DLTs, MTD and RP2D in phase I study CC-90010-ST-001 (NCI CTCAE v4.03)
Format: in vivo
Description: The primary endpoints of the study were the safety and tolerability of trotabresib, as well as the MTD and/or RP2D of trotabresib. Safety was assessed using the National Cancer Institute Common Terminology Criteria for Adverse Events v4.03[53].
The decision to evaluate additional subjects within a dose cohort, a higher dose cohort, intermediate dose cohorts, smaller dose increments, alternate dosing schedules, or declare an MTD will also be determined by the SRC, based on their review of clinical and laboratory safety […]
7.2.4. Definition of a Subject Evaluable for DLT
After the first dose is administered in any cohort during dose escalation, subjects in each cohort […]
more than one subject per day will be enrolled in a given dose escalation cohort.
A subject evaluable for DLT is defined as one that: […]
without experiencing a DLT,
Subjects non-evaluable for DLT will be replaced. Additional subjects within any dose cohort may be enrolled at the discretion of the SRC. Intra-subject dose escalation will not be allowed during the DLT assessment period.
7.2.5. Definition of Maximum Tolerated Dose (MTD) […]
of MTD is described in Section 7.2.2.
A variable dose cohort (eg, less frequent dosing) may be evaluated to accurately determine the MTD at the discretion of the SRC.
7.2.6. Definition of Dose-Limiting Toxicity (DLT) […]
used as a guide for the grading of severity of adverse events. A DLT is defined as any of the following toxicities occurring within the DLT assessment unless the event can clearly be […]
Do se-limiting toxicities are described below:
• Hyperglycemia meeting any of the following criteria:
− Grade 3 or greater fasting hyperglycemia (> 250 mg/dL) lasting > 4 days despite optimal medical treatment
(1 picture or pasted object on this page, not shown here)
− Hyperglycemia associated with diabetic ketoacidosis or nonketotic hyperosmolar coma regardless of glucose level
− Hyperglycemia that necessitates dose reduction despite dose interruption and resolution to ≤ grade 1 hyperglycemia within two weeks as described in […]
• Any Grade 4 non-hematologic toxicity of any duration
• Any non-hematologic toxicity Grade ≥ 3 EXCEPT for:
− Grade 3 diarrhea, nausea, or vomiting of ≤ 3 days duration (with optimal medical […]
− Grade 3 rash of the acneiform, pustular or maculopapular type which resolves to […]
level with resumption of study drug at the same dose (with optimal medical […]
− Grade 3 fatigue which resolves to Grade ≤ 2 within 7 days of study drug […]
the same dose (with optimal medical management).
• Hematological toxicities as follows:
− Grade 4 neutropenia lasting > 7 days
− Grade 4 thrombocytopenia lasting > 7 days, Grade ≥ 3 thrombocytopenia with clinically significant bleeding
• Any AE, Grade ≥ 2 not specified or exempt above, unless clearly determined to be unrelated to the drug, necessitating dose-level reduction during Cycle 1.
Isolated laboratory changes without associated clinical signs or symptoms (eg, hypomagnesemia, hypermagnesemia, hypoalbuminemia, hypophosphatemia, lymphocyte count increased or decreased) may not be included in this definition. These findings will be discussed and reviewed […]
7.2.7. Criteria for Dose Escalation in the Next Cohort of Subjects
During Part A, the dose escalation criteria are described in Section 7.2.2.
7.2.8. Definition of Stopping Criteria
During Part A, the dose escalation stopping rules are in Section 7.2.2.
7.2.9. Permitted Study Drug Adjustments
Dose reductions are permitted in any cycle, including Cycle 1.
• Dose reductions that occur in Cycle 1 during dose escalation will constitute DLT as […]

[1] = part B (12 subjects), 02 Dec 2019 cutoff
[2] = part C, cycles 1 and 2, fasted state (n = 39)
[3] = part C, cycles 1 and 2, fed state (n = 35)

Cn1cc(-c2cc(S(C)(=O)=O)ccc2OCC2CC2)c2ccccc2c1=O [trotabresib]
TRAE: Hyperglycemia (part A, grade 3): 1.45% | TRAE: Hypertension (part A, grade 3): 0% | TRAE: Hyponatremia (part A, grade 3): 1.45% | TRAE: Hypophosphatemia (part A, grade 3): 1.45% | TRAE: Nausea (part A, grade 3): 0% | TRAE: Neutropenia (part A, grade 3): 1.45% | TRAE: Platelet count decreased (part A, grade 3): 1.45% | TRAE: Stomatitis (part A, grade 3): 0% | TRAE: Thrombocytopenia (part A, grade 3): 10.14% | TRAE: Vomiting (part A, grade 3): 0% | TRAE: ALT increased (part A, grade 4): 0% | TRAE: Anemia (part A, grade 4): 0% | TRAE: Any TRAE (part A, grade 4): 7.25% | TRAE: Asthenia (part A, grade 4): 0% | TRAE: Decreased appetite (part A, grade 4): 0% | TRAE: Dehydration (part A, grade 4): 0% | TRAE: Dermatitis acneiform (part A, grade 4): 0% | TRAE: Diarrhoea (part A, grade 4): 0% | TRAE: Dysgeusia (part A, grade 4): 0% | TRAE: Fatigue (part A, grade 4): 0% | TRAE: Hyperglycemia (part A, grade 4): 0% | TRAE: Hypertension (part A, grade 4): 0% | TRAE: Hyponatremia (part A, grade 4): 1.45% | TRAE: Hypophosphatemia (part A, grade 4): 0% | TRAE: Nausea (part A, grade 4): 0% | TRAE: Neutropenia (part A, grade 4): 0% | TRAE: Platelet count decreased (part A, grade 4): 1.45% | TRAE: Stomatitis (part A, grade 4): 0% | TRAE: Thrombocytopenia (part A, grade 4): 2.9% | TRAE: Vomiting (part A, grade 4): 0% | Grade 3 hyperglycemia, treatment-related [1]: 8.3% | Grade 4 hyperglycemia, treatment-related [1]: 8.3% | TEAE anemia [1]: 66.7% | TEAE thrombocytopenia [1]: 58.3% | hyperglycemia [1]: 33.3% | subjects with at least one TEAE [1]: 83.3% | TRAE: ALT increased (part B DLBCL, any grade): 8.7% | TRAE: Anemia (part B DLBCL, any grade): 43.48% | TRAE: Any TRAE (part B DLBCL, any grade): 100% | TRAE: Asthenia (part B DLBCL, any grade): 21.74% | TRAE: Decreased appetite (part B DLBCL, any grade): 21.74% | TRAE: Dehydration (part B DLBCL, any grade): 13.04% | TRAE: Dermatitis acneiform (part B DLBCL, any grade): 0% | TRAE: Diarrhoea (part B DLBCL, any grade): 52.17% | TRAE: Dysgeusia (part B DLBCL, any grade): 8.7% | TRAE: Fatigue (part B DLBCL, any grade): 0% | TRAE: Hyperglycemia (part B DLBCL, any grade): 39.13% | TRAE: Hypertension (part B DLBCL, any grade): 4.35% | TRAE: Hyponatremia (part B DLBCL, any grade): 8.7% | TRAE: Hypophosphatemia (part B DLBCL, any grade): 17.39% | TRAE: Nausea (part B DLBCL, any grade): 21.74% | TRAE: Neutropenia (part B DLBCL, any grade): 39.13% | TRAE: Platelet count decreased (part B DLBCL, any grade): 0% | TRAE: Stomatitis (part B DLBCL, any grade): 17.39% | TRAE: Thrombocytopenia (part B DLBCL, any grade): 91.3% | TRAE: Vomiting (part B DLBCL, any grade): 17.39% | TRAE: ALT increased (part B DLBCL, grade 3): 0% | TRAE: Anemia (part B DLBCL, grade 3): 26.09% | TRAE: Any TRAE (part B DLBCL, grade 3): 26.09% | TRAE: Asthenia (part B DLBCL, grade 3): 8.7% | TRAE: Decreased appetite (part B DLBCL, grade 3): 4.35% | TRAE: Dehydration (part B DLBCL, grade 3): 13.04% | TRAE: Dermatitis acneiform (part B DLBCL, grade 3): 0% | TRAE: Diarrhoea (part B DLBCL, grade 3): 0% | TRAE: Dysgeusia (part B DLBCL, grade 3): 0% | TRAE: Fatigue (part B DLBCL, grade 3): 0% | TRAE: Hyperglycemia (part B DLBCL, grade 3): 4.35% | TRAE: Hypertension (part B DLBCL, grade 3): 4.35% | TRAE: Hyponatremia (part B DLBCL, grade 3): 0% | TRAE: Hypophosphatemia (part B DLBCL, grade 3): 13.04% | TRAE: Nausea (part B DLBCL, grade 3): 4.35% | TRAE: Neutropenia (part B DLBCL, grade 3): 13.04% | TRAE: Platelet count decreased (part B DLBCL, grade 3): 0% | TRAE: Stomatitis (part B DLBCL, grade 3): 0% | TRAE: Thrombocytopenia (part B DLBCL, grade 3): 17.39% | TRAE: Vomiting (part B DLBCL, grade 3): 0% | TRAE: ALT increased (part B DLBCL, grade 4): 0% | TRAE: Anemia (part B DLBCL, grade 4): 0% | TRAE: Any TRAE (part B DLBCL, grade 4): 65.22% | TRAE: Asthenia (part B DLBCL, grade 4): 0% | TRAE: Decreased appetite (part B DLBCL, grade 4): 0% | TRAE: Dehydration (part B DLBCL, grade 4): 0% | TRAE: Dermatitis acneiform (part B DLBCL, grade 4): 0% | TRAE: Diarrhoea (part B DLBCL, grade 4): 0% | TRAE: Dysgeusia (part B DLBCL, grade 4): 0% | TRAE: Fatigue (part B DLBCL, grade 4): 0% | TRAE: Hyperglycemia (part B DLBCL, grade 4): 4.35% | TRAE: Hypertension (part B DLBCL, grade 4): 0% | TRAE: Hyponatremia (part B DLBCL, grade 4): 0% | TRAE: Hypophosphatemia (part B DLBCL, grade 4): 0% | TRAE: Nausea (part B DLBCL, grade 4): 0% | TRAE: Neutropenia (part B DLBCL, grade 4): 13.04% | TRAE: Platelet count decreased (part B DLBCL, grade 4): 0% | TRAE: Stomatitis (part B DLBCL, grade 4): 0% | TRAE: Thrombocytopenia (part B DLBCL, grade 4): 60.87% | TRAE: Vomiting (part B DLBCL, grade 4): 0% | grade 3/4 TRAE anemia (part B R/R DLBCL (N = 23)): 26% | grade 3/4 TRAE neutropenia (part B R/R DLBCL (N = 23)): 26% | grade 3/4 TRAE thrombocytopenia (part B R/R DLBCL (N = 23)): 78% | patients who died due to TEAEs not considered related to study treatment (part B R/R DLBCL (N = 23)): 9% | patients with any-grade TRAEs (part B R/R DLBCL (N = 23)): 100% | patients with grade 3/4 TRAEs (part B R/R DLBCL (N = 23)): 91% | patients with serious TRAEs (part B R/R DLBCL (N = 23)): 30% | further grade 3 and 4 TRAEs reported in one patient each (part B R/R DLBCL population): Grade 3 abdominal infection, blood bilirubin increased, pneumonia and grade 4 blood creatinine increased, febrile neutropenia, leukopenia, and lymphopenia | TEAE leading to death, not considered related (part C (N = 41)): one | grade 3/4 TRAE thrombocytopenia (part C (N = 41)): 17% | patients with any-grade TRAEs (part C (N = 41)): 98% | patients with grade 3/4 TRAEs (part C (N = 41)): 59% | further grade 3 TRAEs reported in one patient each (part C population): Grade 3 gamma-glutamyl transferase increased, hyperamylasemia, and syncope | TRAE: ALT increased (part C, any grade): 21.95% | TRAE: Anemia (part C, any grade): 12.2% | TRAE: Any TRAE (part C, any grade): 97.56% | TRAE: Asthenia (part C, any grade): 41.46% | TRAE: Decreased appetite (part C, any grade): 34.15% | TRAE: Dehydration (part C, any grade): 0% | TRAE: Dermatitis acneiform (part C, any grade): 17.07% | TRAE: Diarrhoea (part C, any grade): 60.98% | TRAE: Dysgeusia (part C, any grade): 53.66% | TRAE: Fatigue (part C, any grade): 26.83% | TRAE: Hyperglycemia (part C, any grade): 19.51% | TRAE: Hypertension (part C, any grade): 4.88% | TRAE: Hyponatremia (part C, any grade): 2.44% | TRAE: Hypophosphatemia (part C, any grade): 4.88% | TRAE: Nausea (part C, any grade): 60.98% | TRAE: Neutropenia (part C, any grade): 12.2% | TRAE: Platelet count decreased (part C, any grade): 0% | TRAE: Stomatitis (part C, any grade): 56.1% | TRAE: Thrombocytopenia (part C, any grade): 63.41% | TRAE: Vomiting (part C, any grade): 43.9% | patients with any-grade TRAEs [2]: 95% | patients with grade 3/4 TRAEs [2]: 33% | patients with any-grade TRAEs [3]: 91% | patients with grade 3/4 TRAEs [3]: 20% | TRAE: ALT increased (part C, grade 3): 2.44% | TRAE: Anemia (part C, grade 3): 0% | TRAE: Any TRAE (part C, grade 3): 56.1% | TRAE: Asthenia (part C, grade 3): 7.32% | TRAE: Decreased appetite (part C, grade 3): 0% | TRAE: Dehydration (part C, grade 3): 0% | TRAE: Dermatitis acneiform (part C, grade 3): 0% | TRAE: Diarrhoea (part C, grade 3): 4.88% | TRAE: Dysgeusia (part C, grade 3): 0% | TRAE: Fatigue (part C, grade 3): 7.32% | TRAE: Hyperglycemia (part C, grade 3): 4.88% | TRAE: Hypertension (part C, grade 3): 2.44% | TRAE: Hyponatremia (part C, grade 3): 2.44% | TRAE: Hypophosphatemia (part C, grade 3): 4.88% | TRAE: Nausea (part C, grade 3): 4.88% | TRAE: Neutropenia (part C, grade 3): 4.88% | TRAE: Platelet count decreased (part C, grade 3): 0% | TRAE: Stomatitis (part C, grade 3): 4.88% | TRAE: Thrombocytopenia (part C, grade 3): 14.63% | TRAE: Vomiting (part C, grade 3): 2.44% | TRAE: ALT increased (part C, grade 4): 0% | TRAE: Anemia (part C, grade 4): 0% | TRAE: Any TRAE (part C, grade 4): 2.44% | TRAE: Asthenia (part C, grade 4): 0% | TRAE: Decreased appetite (part C, grade 4): 0% | TRAE: Dehydration (part C, grade 4): 0% | TRAE: Dermatitis acneiform (part C, grade 4): 0% | TRAE: Diarrhoea (part C, grade 4): 0% | TRAE: Dysgeusia (part C, grade 4): 0% | TRAE: Fatigue (part C, grade 4): 0% | TRAE: Hyperglycemia (part C, grade 4): 0% | TRAE: Hypertension (part C, grade 4): 0% | TRAE: Hyponatremia (part C, grade 4): 0% | TRAE: Hypophosphatemia (part C, grade 4): 0% | TRAE: Nausea (part C, grade 4): 0% | TRAE: Neutropenia (part C, grade 4): 0% | TRAE: Platelet count decreased (part C, grade 4): 0% | TRAE: Stomatitis (part C, grade 4): 0% | TRAE: Thrombocytopenia (part C, grade 4): 2.44% | TRAE: Vomiting (part C, grade 4): 0% | grade 5 TRAEs (whole study): No grade 5 TRAEs were reported
